Data from patent US12370231B2, “Compositions for inhibiting degradation of hyaluronic acid and methods of use thereof” (Epidarus Therapeutics, LLC, priority 2020, dated 2025).
One block for each molecule: values may come before it.

Legend:
Type in all cases: biochemical
HYAL1 [1] = biological target: T1, HYAL1 (Homo sapiens, UniProt Q12794); assay: Anti-HYAL1 activity of Epidarus Extract Mix after incubation with antimicrobial agents; settings: agent at 0.3%; 5 mg/ml Epidarus Extract Mix in 5% 1,3 Propanediol/Water, 48 hours, 37 degrees; relative to control without agent
T1 construct: Human HYAL1 enzyme was isolated from urine following published protocols; from tissue; host or cells: human urine
T1 sequence (Q12794 22-435): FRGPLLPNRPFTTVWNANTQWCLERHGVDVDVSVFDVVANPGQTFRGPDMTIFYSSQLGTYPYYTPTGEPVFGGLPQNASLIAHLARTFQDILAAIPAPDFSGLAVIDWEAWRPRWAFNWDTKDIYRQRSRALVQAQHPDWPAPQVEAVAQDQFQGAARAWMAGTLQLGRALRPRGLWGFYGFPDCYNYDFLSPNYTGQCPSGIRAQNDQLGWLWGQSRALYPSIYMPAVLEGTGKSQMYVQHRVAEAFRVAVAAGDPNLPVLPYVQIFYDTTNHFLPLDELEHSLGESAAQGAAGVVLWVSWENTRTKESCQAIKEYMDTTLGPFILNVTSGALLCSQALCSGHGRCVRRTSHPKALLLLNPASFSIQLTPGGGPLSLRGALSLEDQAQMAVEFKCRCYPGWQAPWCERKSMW
Description: In order to achieve stable, bio-active cosmeceutical formulations, a range of commercially available cosmetic ingredients were assessed for their ability to solubilize the Prunella, Linden or Star Anise extracts or mixed extracts of Prunella, Linden or Star Anise without compromising the HYAL1—inhibitory activity of the botanical extracts. These included, for example: Sepigel 305™, Simugel 600™, Arlasolve™-DMI, Carbopol® Ultrez 21, Hydrolyte®5, Hydrolyte®6 and Zemea® 1,3 Propanediol. In addition, a number of preservative/antimicrobial compounds were similarly assessed for efficacy and effects on biological activity of the added botanical extracts. These included, for example: Phenoxyethanol, Optiphen™ (Phenoxyethanol and Caprylyl Glycol), Methylparaben and Chlorphenesin.
The antimicrobial agents were incubated in a solution of 5% 1,3 Propanediol/Water containing 5 mg/ml of Epidarus Extract Mix (Prunella, Star Anise and Linden) at the indicated concentrations for 48 hours at 37 degrees Centigrade. The anti-HYAL1 activity was measured relative to a control without added antimicrobial agents.

HYAL1 [2] = biological target: T1, HYAL1; assay: HYAL1-inhibitory activity of Epidarus extracts after simulated digestion with additives/excipients; settings: test ingredient with Epidarus extracts, after simulated gastric and intestinal digestion
Description: In order to develop bio-active formulations for osteoarthritis and bladder […] cystitis therapies in humans and animals, oral bio-availability studies were undertaken. […] Maltodextrin is a partially hydrolyzed vegetable starch and is made from corn, rice, potato starch, wheat, or other vegetable sources. […] The gastric digest was adjusted to pH 6.8 with 1M Sodium Hydroxide and mixed with an equivalent volume of Simulated Intestinal Fluid (SIF) to which was added a commercial preparation of canine pancreatic enzymes, at the following concentrations: Lipase (2,000 to 10,000 Units per ml), Protease (100 to 1,000 Units per ml), Amylase (200 to 2,000 Units per ml) and Bile Salts to 10 mM. Following the simulated complete digestion of the chew/tablet formulations, the levels of active ingredients were assayed and the HYAL1-inhibitory activity was determined. These assays were used to test a range of additives/excipients used in the production of functional nutritional supplements for human and animal use.

HYAL1 [3] = biological target: T1, HYAL1; assay: HYAL1 degradation of synovial fluid HA; settings: 12 ug Synovial Fluid HA per assay, 2 hours, 37 degrees
Description: Human HYAL1 enzyme was isolated from urine following published protocols (Afify, A. M. et al. Archives of Biochemistry and Biophysics 305, 434-441, 1993). The enzyme activity was calibrated and validated by comparison to commercially available recombinant human HYAL1 (R&D Systems, USA).
Synovial fluid from healthy joints is a solution of 5 to 7 mg/ml of High Molecular weight Hyaluronic Acid. The bovine metacarpopharangeal joints used in these experiments were from 2 year old steers and the synovial fluid was verified by Agarose Gel electrophoresis to be composed of predominantly High MW HA.
Degradation of Synovial Fluid by urinary HYAL1 breaks down the HA to tetra-saccharides in 2 hours at 37 degrees, using a standard HYAL1 assay, testing 12 ug Synovial Fluid HA per assay.
An extract mixture containing Star Anise Pod Extract, Linden Flower Extract and Prunella Flower Spike Extract was also tested to determine the minimum concentration of extract mix required to achieve 100% inhibition of Synovial Fluid HA under the same conditions as used for pentosan polysulfate. This concentration was determined to be 280 ng/ml.

Anti-HYAL1 Activity (HYAL1 [1]): 45%
Molecule: COC(=O)c1ccc(O)cc1 [Methylparaben]

% Inhibition of anti-HYAL1 activity (HYAL1 [2]): 0%
Molecule: CCCCCCCCCCCCCCCCCC(=O)O [Stearic Acid]

concentration causing 100% inhibition of HYAL1 (HYAL1 [3]): 156 ng/mL
Molecule: pentosan polysulfate
